Measurements from the supplement of paper PMC10307832.

Columns and labels:
Experiment in all cases: relative viability (nuclei count vs DMSO), 5 days (fraction); higher = more cells survive
HOP-62 = system: HOP-62
How it was run: (§1)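 Lung cancer cell lines, seeded in 1536-well plates, were treated the following day by pin tool with a single drug or with five library-drug doses (not always all listed) in √10 steps on top of a fixed anchor-drug dose. Cells were fixed and nuclei stained in one step after 5 days, and nuclei were counted. Relative viability is the nuclei count for treated wells divided by that for vehicle wells, reported as medians of duplicate plates.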

HARA = system: HARA
How it was run: as §1

NCI-H1755 = system: NCI-H1755
How it was run: as §1

UMC-11 = system: UMC-11
How it was run: as §1

NCI-H727 = system: NCI-H727
How it was run: as §1

NCI-H1437 = system: NCI-H1437
How it was run: as §1

EMC-BAC-2 = system: EMC-BAC-2
How it was run: as §1

NCI-H1651 = system: NCI-H1651
How it was run: as §1

PC-3 [JPC-3] = system: PC-3 [JPC-3]
How it was run: as §1

NCI-H1563 = system: NCI-H1563
How it was run: as §1

ABC-1 = system: ABC-1
How it was run: as §1

NCI-H3122 = system: NCI-H3122
How it was run: as §1

NCI-H1734 = system: NCI-H1734
How it was run: as §1

NCI-H441 = system: NCI-H441
How it was run: as §1

HCC-366 = system: HCC-366
How it was run: as §1

COR-L23 = system: COR-L23
How it was run: as §1

NCI-H2347 = system: NCI-H2347
How it was run: as §1

NCI-H596 = system: NCI-H596
How it was run: as §1

RERF-LC-KJ = system: RERF-LC-KJ
How it was run: as §1

SK-LU-1 = system: SK-LU-1
How it was run: as §1

NCI-H1650 = system: NCI-H1650
How it was run: as §1

CAL-12T = system: CAL-12T
How it was run: as §1

## Cc1cn(-c2cc(NC(=O)c3ccc(C)c(Nc4nccc(-c5cccnc5)n4)c3)cc(C(F)(F)F)c2)cn1 [Nilotinib] + CC(C)C[C@H](NC(=O)[C@H](Cc1ccccc1)NC(=O)c1cnccn1)B(O)O [Bortezomib] (partner 0.002 µM)
HOP-62; first compound 0.001 µM
  relative viability: 0.706
HOP-62; first compound 0.003162 µM
  relative viability: 0.861
HOP-62; first compound 0.01 µM
  relative viability: 0.28
HOP-62; first compound 0.03162 µM
  relative viability: 0.576
HARA; first compound 0.001 µM
  relative viability: 1.17
HARA; first compound 0.003162 µM
  relative viability: 1.25
HARA; first compound 0.01 µM
  relative viability: 1.11
HARA; first compound 0.03162 µM
  relative viability: 1.15
HARA; first compound 0.1 µM
  relative viability: 0.859
NCI-H1755; first compound 0.001 µM
  relative viability: 1
NCI-H1755; first compound 0.003162 µM
  relative viability: 1.16
NCI-H1755; first compound 0.01 µM
  relative viability: 1.15
NCI-H1755; first compound 0.03162 µM
  relative viability: 0.81
NCI-H1755; first compound 0.1 µM
  relative viability: 0.929
UMC-11; first compound 0.001 µM
  relative viability: 0.65
UMC-11; first compound 0.003162 µM
  relative viability: 0.658
UMC-11; first compound 0.01 µM
  relative viability: 0.806
UMC-11; first compound 0.1 µM
  relative viability: 0.333
NCI-H727; first compound 0.001 µM
  relative viability: 0.848
NCI-H727; first compound 0.01 µM
  relative viability: 0.976
NCI-H727; first compound 0.03162 µM
  relative viability: 0.678
NCI-H727; first compound 0.1 µM
  relative viability: 0.484
NCI-H1437; first compound 0.001 µM
  relative viability: 0.485
NCI-H1437; first compound 0.003162 µM
  relative viability: 0.505
NCI-H1437; first compound 0.01 µM
  relative viability: 0.651
NCI-H1437; first compound 0.03162 µM
  relative viability: 0.367
NCI-H1437; first compound 0.1 µM
  relative viability: 0.161
EMC-BAC-2; first compound 0.001 µM
  relative viability: 1.03
EMC-BAC-2; first compound 0.003162 µM
  relative viability: 1.08
EMC-BAC-2; first compound 0.01 µM
  relative viability: 1.09
EMC-BAC-2; first compound 0.03162 µM
  relative viability: 0.922
EMC-BAC-2; first compound 0.1 µM
  relative viability: 1.05
NCI-H1651; first compound 0.001 µM
  relative viability: 0.917
NCI-H1651; first compound 0.003162 µM
  relative viability: 1.05
NCI-H1651; first compound 0.01 µM
  relative viability: 1.07
NCI-H1651; first compound 0.03162 µM
  relative viability: 0.956
NCI-H1651; first compound 0.1 µM
  relative viability: 0.653
PC-3 [JPC-3]; first compound 0.001 µM
  relative viability: 0.848
PC-3 [JPC-3]; first compound 0.003162 µM
  relative viability: 0.88
PC-3 [JPC-3]; first compound 0.01 µM
  relative viability: 0.975
PC-3 [JPC-3]; first compound 0.03162 µM
  relative viability: 0.707
PC-3 [JPC-3]; first compound 0.1 µM
  relative viability: 0.46
NCI-H1563; first compound 0.001 µM
  relative viability: 0.878
NCI-H1563; first compound 0.003162 µM
  relative viability: 0.84
NCI-H1563; first compound 0.01 µM
  relative viability: 0.79
NCI-H1563; first compound 0.03162 µM
  relative viability: 0.704
NCI-H1563; first compound 0.1 µM
  relative viability: 0.623
ABC-1; first compound 0.001 µM
  relative viability: 0.291
ABC-1; first compound 0.003162 µM
  relative viability: 0.275
ABC-1; first compound 0.01 µM
  relative viability: 0.23
ABC-1; first compound 0.03162 µM
  relative viability: 0.28
NCI-H3122; first compound 0.003162 µM
  relative viability: 1.05
NCI-H3122; first compound 0.03162 µM
  relative viability: 1.03
NCI-H3122; first compound 0.1 µM
  relative viability: 0.962
NCI-H1734; first compound 0.001 µM
  relative viability: 0.877
NCI-H1734; first compound 0.003162 µM
  relative viability: 0.948
NCI-H1734; first compound 0.01 µM
  relative viability: 1.01
NCI-H1734; first compound 0.03162 µM
  relative viability: 0.558
NCI-H1734; first compound 0.1 µM
  relative viability: 0.6
NCI-H441; first compound 0.001 µM
  relative viability: 0.33
NCI-H441; first compound 0.003162 µM
  relative viability: 0.735
NCI-H441; first compound 0.01 µM
  relative viability: 0.492
NCI-H441; first compound 0.1 µM
  relative viability: 0.219
HCC-366; first compound 0.001 µM
  relative viability: 0.88
HCC-366; first compound 0.003162 µM
  relative viability: 1.74
HCC-366; first compound 0.01 µM
  relative viability: 1.35
HCC-366; first compound 0.03162 µM
  relative viability: 0.692
HCC-366; first compound 0.1 µM
  relative viability: 0.844
COR-L23; first compound 0.001 µM
  relative viability: 0.726
COR-L23; first compound 0.003162 µM
  relative viability: 1.24
COR-L23; first compound 0.01 µM
  relative viability: 1.22
COR-L23; first compound 0.03162 µM
  relative viability: 0.858
COR-L23; first compound 0.1 µM
  relative viability: 0.907
NCI-H2347; first compound 0.001 µM
  relative viability: 0.8
NCI-H2347; first compound 0.003162 µM
  relative viability: 1.08
NCI-H2347; first compound 0.01 µM
  relative viability: 1.17
NCI-H2347; first compound 0.03162 µM
  relative viability: 0.702
NCI-H2347; first compound 0.1 µM
  relative viability: 0.865
NCI-H596; first compound 0.001 µM
  relative viability: 1.16
NCI-H596; first compound 0.003162 µM
  relative viability: 1.03
NCI-H596; first compound 0.01 µM
  relative viability: 1.18
NCI-H596; first compound 0.03162 µM
  relative viability: 1.21
NCI-H596; first compound 0.1 µM
  relative viability: 0.96
RERF-LC-KJ; first compound 0.001 µM
  relative viability: 1.12
RERF-LC-KJ; first compound 0.003162 µM
  relative viability: 1.14
RERF-LC-KJ; first compound 0.01 µM
  relative viability: 1.22
RERF-LC-KJ; first compound 0.03162 µM
  relative viability: 1.05
RERF-LC-KJ; first compound 0.1 µM
  relative viability: 1.02
SK-LU-1; first compound 0.001 µM
  relative viability: 1.29
SK-LU-1; first compound 0.01 µM
  relative viability: 0.831
SK-LU-1; first compound 0.03162 µM
  relative viability: 1
SK-LU-1; first compound 0.1 µM
  relative viability: 0.949
NCI-H1650; first compound 0.001 µM
  relative viability: 0.2
NCI-H1650; first compound 0.003162 µM
  relative viability: 0.195
NCI-H1650; first compound 0.01 µM
  relative viability: 0.18
NCI-H1650; first compound 0.03162 µM
  relative viability: 0.196
NCI-H1650; first compound 0.1 µM
  relative viability: 0.197
CAL-12T; first compound 0.001 µM
  relative viability: 0.968
CAL-12T; first compound 0.01 µM
  relative viability: 0.919
CAL-12T; first compound 0.03162 µM
  relative viability: 0.807
CAL-12T; first compound 0.1 µM
  relative viability: 1.19
